The values that follow come from ChEMBL document CHEMBL3046725, “Synthesis and preliminary antibacterial evaluation of hydroxamic acid and N-formyl hydroxylamine derivatives bearing oxazole ring” (2013).

What all share (assay type): functional
One assay deals with Staphylococcus aureus. Briefly: Antibacterial activity against Staphylococcus aureus ATCC 25923 after 24 hr by broth microdilution method. The settings on record: ATCC 25923, 24 h. (In broth dilution the organism is exposed to a series of concentrations in liquid medium.)
The subject of the next assay is Streptococcus pneumoniae. Description: Antibacterial activity against Streptococcus pneumoniae NCTC 7466 after 24 hr by broth microdilution method. The settings on record: NCTC 7466, 24 h.
A further assay concerns Pseudomonas aeruginosa. Description: Antibacterial activity against Pseudomonas aeruginosa ATCC 27853 after 24 hr by broth microdilution method. The settings on record: ATCC 27853, 24 h.
The subject of a further assay is Escherichia coli. Description: Antibacterial activity against Escherichia coli ATCC 25922 after 24 hr by broth microdilution method. The settings on record: ATCC 25922, 24 h.

In brackets after ≈: the same amount, converted by molar mass.

In the case of `CCCC[C@H](CC(=O)NO)C(=O)N[C@H](c1nc(C(=O)Nc2ccc(C)cc2)co1)C(C)C`, the MIC with Staphylococcus aureus was 50 µg/mL (≈ 112 µM); against Streptococcus pneumoniae, 200 µg/mL (≈ 450 µM); against Pseudomonas aeruginosa it was 100 µg/mL (≈ 225 µM); in the assay on Escherichia coli, 25 µg/mL (≈ 56.2 µM).
In the same order, the values of `CCCC[C@H](CC(=O)NO)C(=O)N[C@H](c1nc(C(=O)Nc2ccc(F)cc2)co1)C(C)C` are 100 µg/mL (≈ 223 µM), > 200 µg/mL, 100 µg/mL (≈ 223 µM) and 100 µg/mL (≈ 223 µM).
For `CCCC[C@H](CC(=O)NO)C(=O)N[C@H](c1nc(C(=O)Nc2ccc(F)cn2)co1)C(C)C`, in that order: 100 µg/mL (≈ 222 µM), > 200 µg/mL, 100 µg/mL (≈ 222 µM) and 50 µg/mL (≈ 111 µM).
With `CCCC[C@H](CN(O)C=O)C(=O)N[C@H](c1nc(C(=O)N(CC)CC)co1)C(C)C`, the MIC in the assay on Staphylococcus aureus stood at 25 µg/mL (≈ 60.9 µM); in the assay with Streptococcus pneumoniae, 50 µg/mL (≈ 122 µM); with Pseudomonas aeruginosa, 100 µg/mL (≈ 244 µM); against Escherichia coli, 12.5 µg/mL (≈ 30.4 µM).
As for `CCCC[C@H](CN(O)C=O)C(=O)N[C@H](c1nc(C(=O)N2CCCCC2)co1)C(C)C`, the MIC is 50 µg/mL (≈ 118 µM) against Staphylococcus aureus, > 200 µg/mL with Streptococcus pneumoniae, 100 µg/mL (≈ 237 µM) in the assay on Pseudomonas aeruginosa and 25 µg/mL (≈ 59.2 µM) in the assay on Escherichia coli.
In the same order, the values of `CCCC[C@H](CN(O)C=O)C(=O)N[C@H](c1nc(C(=O)Nc2ccc(C)cc2)co1)C(C)C` are > 200 µg/mL, > 200 µg/mL, > 200 µg/mL and > 200 µg/mL.
For `CCCC[C@H](CN(O)C=O)C(=O)N[C@H](c1nc(C(=O)Nc2ccc(F)cc2)co1)C(C)C`, in that order: > 200 µg/mL, > 200 µg/mL, > 200 µg/mL and > 200 µg/mL.
For `CCCC[C@H](CN(O)C=O)C(=O)N[C@H](c1nc(C(=O)Nc2ccc(F)cn2)co1)C(C)C`, in that order: > 200 µg/mL, > 200 µg/mL, > 200 µg/mL and > 200 µg/mL.
Turning to `CCCC[C@H](CN(O)C=O)C(=O)N[C@H](c1nc(C(=O)Nc2ccc(F)c(F)c2)co1)C(C)C`, the MIC in the assay with Staphylococcus aureus, in the assay with Streptococcus pneumoniae, against Pseudomonas aeruginosa and in the assay with Escherichia coli was > 200 µg/mL throughout.
For `CCCC[C@H](CN(O)C=O)C(=O)N[C@H](c1nc(C(=O)Nc2ccc3c(c2)OCO3)co1)C(C)C`, the MIC in the assay with Staphylococcus aureus, against Streptococcus pneumoniae, in the assay with Pseudomonas aeruginosa and against Escherichia coli was > 200 µg/mL throughout.
As to `Cl.O=C(O)c1cn(C2CC2)c2cc(N3CCNCC3)c(F)cc2c1=O` [CIPROFLOXACIN HYDROCHLORIDE], the lowest concentration to inhibit growth in the assay on Streptococcus pneumoniae (MIC) was 6.25 µg/mL.

Broadly, the MIC is the lowest concentration that inhibits growth of the organism. A higher MIC goes with a less susceptible organism.
